Data published in US5219848A, “Cephem compounds” (ICI Pharma, priority 1989, dated 1993).

Legend:
Assay type in all cases: cell-based
Design in all cases: unit not given here
Conditions in all cases: Isosensitest agar, 10^4 CFU/spot
[1] = tested on: P. aeruginosa PU21 (A8101028); assay: MIC by agar-dilution, P. aeruginosa PU21 (A8101028)
Source text: (§1) The following results were obtained for representative compounds on a standard in vitro test system using Isosensitest agar medium. The antibacterial activity is described in terms of the minimum inhibitory concentration (MlC) determined by the agar-dilution technique with an inoculum size of 10^4 CFU/spot.

[2] = tested on: Ent. cloacae P99 (A8401054); assay: MIC by agar-dilution, Ent. cloacae P99 (A8401054)
Source text: as §1

[3] = tested on: Serr. marcesens (A8421003); assay: MIC by agar-dilution, Serr. marcesens (A8421003)
Source text: as §1

Pr. morganii (A8433001) = assay: MIC by agar-dilution, Pr. morganii (A8433001)
Source text: as §1

Kleb. oxytoca (A8395055) = assay: MIC by agar-dilution, Kleb. oxytoca (A8395055)
Source text: as §1

E. coli DCO (A8341098) = assay: MIC by agar-dilution, E. coli DCO (A8341098)
Source text: as §1

[4] = tested on: St. aureus 147N (A8601052); assay: MIC by agar-dilution, St. aureus 147N (A8601052)
Source text: as §1

S. dublin (A8369001) = assay: MIC by agar-dilution, S. dublin (A8369001)
Source text: as §1

[5] = tested on: Strep. pyogenes (A681018); assay: MIC by agar-dilution, Strep. pyogenes (A681018)
Source text: as §1

7-[2-(2-Aminothiazol-4-yl)-2-((Z)-1-carboxy-1-methylethoxyimino)acetamido]- 3-(8-bromo-6,7-dihydroxy-3-oxo-tetrahydroisoquinolin-2-ylmethyl)ceph-3-em-4-carboxylic acid [Example 8]
MIC [1]: 0.008
MIC [2]: 0.125
MIC [3]: 0.06
MIC (Pr. morganii (A8433001)): 0.25
MIC (Kleb. oxytoca (A8395055)): 0.015
MIC (E. coli DCO (A8341098)): 0.008
MIC [4]: 8
MIC (S. dublin (A8369001)): 0.03
MIC [5]: 0.06
